Data as given in publication PMC12775434, “Ultra-large virtual screening unveils potent agonists of the neuromodulatory orphan receptor GPR139” (Nature Communications, 2025).
Where “and” joins values, the source holds several entries; their conditions need not be identical. Equal entries are not always repeated.

Legend:
GPR139 [1] = molecular target: T1, GPR139 (Homo sapiens, UniProt Q6DWJ6); test: Ca2+ mobilization assay, agonist mode, stable GPR139-CHOk1 cell line; assay type: cell-based
T1 sequence (Q6DWJ6 1-353): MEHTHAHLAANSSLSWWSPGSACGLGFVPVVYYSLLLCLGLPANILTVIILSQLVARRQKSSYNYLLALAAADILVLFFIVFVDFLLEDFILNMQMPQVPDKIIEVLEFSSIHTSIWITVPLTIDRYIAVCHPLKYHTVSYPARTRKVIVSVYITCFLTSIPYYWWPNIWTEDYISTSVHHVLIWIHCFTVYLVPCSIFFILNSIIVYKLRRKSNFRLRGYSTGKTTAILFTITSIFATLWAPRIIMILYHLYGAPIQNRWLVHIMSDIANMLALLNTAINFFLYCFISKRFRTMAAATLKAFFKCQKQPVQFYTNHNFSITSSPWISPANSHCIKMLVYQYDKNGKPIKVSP
Procedure, shortened: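 Agonist activity of compounds is assessed in stably transfected CHO-K1 cells using the calcium dye Fluo-4 at 37 °C in HEPES-buffered HBSS (pH 7.4). Efficacy is expressed relative to the reference agonist Lundbeck Cmp 1a, set as 100%.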

GPR139 [2] = molecular target: T1, GPR139; test: Inositol monophosphate (IP1) accumulation assay, GPR139-CHOk1; assay type: cell-based; details: for IP1 response (% of Cmp 1a): replicate experiments
Method: Primary screening and pharmacological characterization of compounds were performed using a CHO-K1 cell line that stably expresses human GPR139 (GPR139-CHOk1). The GPR139-CHOk1 cell line was kindly provided by H. Lundbeck A/S, Denmark[24]. GPR139-CHOk1 cells were grown in Ham’s F-12 Kaighn’s Modification Medium (ThermoFisher #21127030) supplemented with 10% dialyzed fetal bovine serum (US origin, ThermoFisher #26400044), 100 units/mL Penicillin-Streptomycin (ThermoFisher #15140122), and 1 mg/mL Geneticin (ThermoFisher #11811031). […] M1R-CHOk1 cells were purchased from The Missouri S&T cDNA Resource Center (#CEM100TN00). M1R-CHOk1 cells were grown in Ham’s F12 Medium (ThermoFisher #21765029) supplemented with 10% fetal bovine serum (Brazilian origin, ThermoFisher #10270106), 100 units/mL Penicillin-Streptomycin, and 0.25 mg/mL Geneticin. HEK293A cells transiently transfected with GPR139 were used for additional pharmacological assessment of signaling pathways activated by GPR139. HEK239A cells were generously provided by Dr. Asuka Inoue, Tohoku University, Japan. HEK293A cells were grown in Dulbecco’s Modified Eagle Medium (ThermoFisher #31966047) supplemented with 10% dialyzed fetal bovine serum and 100 units/mL Penicillin-Streptomycin. Cell lines were maintained at 37 °C in humidified incubator equilibrated with 5% CO2.
HTRF IP-One Gq kit (Cisbio #62IPAPEC) was used to detect the accumulation of inositol monophosphate (IP1) as described in the work by Shehata et al.[26]. GPR139-CHOk1 cells were dissociated and resuspended in HEPES buffer. 50,000 cells in 5 µL and 5 µL test compounds diluted from DMSO stocks (final DMSO concentration of maximally 0.3%) in HEPES buffer supplemented with 40 mM LiCl were mixed in each well of white 384-well OptiPlate (PerkinElmer #6007290). The cells were incubated for 1 h at 37 °C. Then, 10 µL detection reagent composed of 2.5% Eu3 + -anti-IP1 antibody and 2.5% IP1-d2 diluted in lysis buffer was added, and the cells were incubated for 1 h at room temperature before measurements. Measurements were performed on EnVision Multimode Plate Reader (PerkinElmer) using excitation light of 340 nm and emission light of 615 nm and 665 nm. The time resolved-fluorescence resonance energy transfer (TR-FRET) 665 nm/615 nm ratio, which is inversely proportional to the IP1 accumulation, was used to determine the IP1 response.
Pharmacological data and statistical analyses were performed in GraphPad Prism v9–10 (Graphpad Software Inc., San Diego, CA), which are also specifically described in the figure and table legends. The functional assay responses were normalized to buffer (0%) and Lundbeck Cmp 1a or JNJ-63533054 (100%), for Ca^2+ and IP1 experiments in the GPR139-CHOk1 stable cell line or Ca^2+, G protein activation, and arrestin-3 recruitment experiments in the HEK293A cells transiently transfected with GPR139, respectively. Data are from at least three independent experiments, unless stated otherwise. Concentration-response curves were fitted applying non-linear regression using the log (agonist) versus response model with variable slope. ANOVA was applied for comparing results and determining statistical significance. Comparison of responses to the reference was performed using one-way ANOVA with Dunnett’s multiple comparisons test at significance threshold of p < 0.05. Comparison of responses across assays and ligands was performed using two-way ANOVA with Tukey’s multiple comparisons test at a significance threshold of p < 0.05.

[3] = tested on: patients with schizophrenia and major depressive disorder; details: cited from earlier work

C[C@H](NC(=O)Cn1nnc2ccccc2c1=O)c1ccc(OC(F)(F)F)cc1 [TAK-041, reference compound]
Ca2+ signal (% of Cmp 1a) (GPR139 [1]; log [Compound] M -5.5, replicate experiments): 99 % of Cmp 1a and 95 % of Cmp 1a and 92 % of Cmp 1a
Ca2+ signal (% of Cmp 1a) (GPR139 [1]; log [Compound] M -6.0, replicate experiments): 80 % of Cmp 1a and 94 % of Cmp 1a and 83 % of Cmp 1a
Ca2+ signal (% of Cmp 1a) (GPR139 [1]; log [Compound] M -6.5, replicate experiments): 83 % of Cmp 1a and 80 % of Cmp 1a (2×)
Ca2+ signal (% of Cmp 1a) (GPR139 [1]; log [Compound] M -7.0, replicate experiments): 63 % of Cmp 1a and 62 % of Cmp 1a (2×)
Ca2+ signal (% of Cmp 1a) (GPR139 [1]; log [Compound] M -7.5, replicate experiments): 35 % of Cmp 1a and 36 % of Cmp 1a and 41 % of Cmp 1a
Ca2+ signal (% of Cmp 1a) (GPR139 [1]; log [Compound] M -8.0, replicate experiments): 16 % of Cmp 1a and 11 % of Cmp 1a and 17 % of Cmp 1a
Ca2+ signal (% of Cmp 1a) (GPR139 [1]; log [Compound] M -8.5, replicate experiments): 0 % of Cmp 1a
Ca2+ signal (% of Cmp 1a) (GPR139 [1]; log [Compound] M -9.0, replicate experiments): 0 % of Cmp 1a
Ca2+ signal (% of Cmp 1a) (GPR139 [1]; log [Compound] M = -5.5, individual replicate columns): 99 % of Cmp 1a and 95 % of Cmp 1a and 92 % of Cmp 1a
Ca2+ signal (% of Cmp 1a) (GPR139 [1]; log [Compound] M = -6.0, individual replicate columns): 80 % of Cmp 1a and 94 % of Cmp 1a and 83 % of Cmp 1a
Ca2+ signal (% of Cmp 1a) (GPR139 [1]; log [Compound] M = -6.5, individual replicate columns): 83 % of Cmp 1a and 80 % of Cmp 1a (2×)
Ca2+ signal (% of Cmp 1a) (GPR139 [1]; log [Compound] M = -7.0, individual replicate columns): 63 % of Cmp 1a and 62 % of Cmp 1a (2×)
Ca2+ signal (% of Cmp 1a) (GPR139 [1]; log [Compound] M = -7.5, individual replicate columns): 35 % of Cmp 1a and 36 % of Cmp 1a and 41 % of Cmp 1a
Ca2+ signal (% of Cmp 1a) (GPR139 [1]; log [Compound] M = -8.0, individual replicate columns): 16 % of Cmp 1a and 11 % of Cmp 1a and 17 % of Cmp 1a
Ca2+ signal (% of Cmp 1a) (GPR139 [1]; log [Compound] M = -8.5, individual replicate columns): 0 % of Cmp 1a
Ca2+ signal (% of Cmp 1a) (GPR139 [1]; log [Compound] M = -9.0, individual replicate columns): 0 % of Cmp 1a
Emax (GPR139 [1]; read-out: Emax (%), Ca2+ mobilization): 100 ± 3%
Emax (GPR139 [2]; Supplementary Table 4, normalized to Lundbeck Cmp 1a, read-out: Emax (%), IP1 accumulation): 101 ± 9%
IP1 response (% of Cmp 1a) (GPR139 [2]; log [Compound] M -4.5): 112 % of Cmp 1a and 93 % of Cmp 1a and 83 % of Cmp 1a and 114 % of Cmp 1a
IP1 response (% of Cmp 1a) (GPR139 [2]; log [Compound] M -5.0): 115 % of Cmp 1a and 78 % of Cmp 1a and 92 % of Cmp 1a and 118 % of Cmp 1a
IP1 response (% of Cmp 1a) (GPR139 [2]; log [Compound] M -5.5): 87 % of Cmp 1a and 81 % of Cmp 1a and 75 % of Cmp 1a and 93 % of Cmp 1a
IP1 response (% of Cmp 1a) (GPR139 [2]; log [Compound] M -6.0): 84 % of Cmp 1a and 66 % of Cmp 1a and 75 % of Cmp 1a and 94 % of Cmp 1a
IP1 response (% of Cmp 1a) (GPR139 [2]; log [Compound] M -6.5): 86 % of Cmp 1a and 56 % of Cmp 1a and 45 % of Cmp 1a and 98 % of Cmp 1a
IP1 response (% of Cmp 1a) (GPR139 [2]; log [Compound] M -7.0): 63 % of Cmp 1a (2×) and 41 % of Cmp 1a and 62 % of Cmp 1a
IP1 response (% of Cmp 1a) (GPR139 [2]; log [Compound] M -7.5): 51 % of Cmp 1a and 26 % of Cmp 1a and 33 % of Cmp 1a and 49 % of Cmp 1a
IP1 response (% of Cmp 1a) (GPR139 [2]; log [Compound] M -8.0): 28 % of Cmp 1a and -3.49 % of Cmp 1a and 8 % of Cmp 1a and 21 % of Cmp 1a
outcome of phase II trials ([3]; anhedonia in schizophrenia and major depressive disorder): did not meet the primary endpoints
safety and tolerability [3]: good safety profile and was well tolerated
